These results are taken from article PMC7000700, “RyR1-targeted drug discovery pipeline integrating FRET-based high-throughput screening and human myofiber dynamic Ca^2+ assays” (Scientific Reports, 2020).

Read-outs that look alike come from different tables or passages of the source. Where only a bound is given, the exact number is not on record here.

The target of assay [1] is T1, RyR1 (Sus scrofa, UniProt P16960). Details: RyR1 in skeletal SR membranes; from tissue; host or cells: porcine longissimus dorsi muscle (heavy SR vesicles); method as in PMID 27760856. The following applies: NIH Clinical Collection screen; cited from earlier work.
T1 sequence (P16960 whole entry): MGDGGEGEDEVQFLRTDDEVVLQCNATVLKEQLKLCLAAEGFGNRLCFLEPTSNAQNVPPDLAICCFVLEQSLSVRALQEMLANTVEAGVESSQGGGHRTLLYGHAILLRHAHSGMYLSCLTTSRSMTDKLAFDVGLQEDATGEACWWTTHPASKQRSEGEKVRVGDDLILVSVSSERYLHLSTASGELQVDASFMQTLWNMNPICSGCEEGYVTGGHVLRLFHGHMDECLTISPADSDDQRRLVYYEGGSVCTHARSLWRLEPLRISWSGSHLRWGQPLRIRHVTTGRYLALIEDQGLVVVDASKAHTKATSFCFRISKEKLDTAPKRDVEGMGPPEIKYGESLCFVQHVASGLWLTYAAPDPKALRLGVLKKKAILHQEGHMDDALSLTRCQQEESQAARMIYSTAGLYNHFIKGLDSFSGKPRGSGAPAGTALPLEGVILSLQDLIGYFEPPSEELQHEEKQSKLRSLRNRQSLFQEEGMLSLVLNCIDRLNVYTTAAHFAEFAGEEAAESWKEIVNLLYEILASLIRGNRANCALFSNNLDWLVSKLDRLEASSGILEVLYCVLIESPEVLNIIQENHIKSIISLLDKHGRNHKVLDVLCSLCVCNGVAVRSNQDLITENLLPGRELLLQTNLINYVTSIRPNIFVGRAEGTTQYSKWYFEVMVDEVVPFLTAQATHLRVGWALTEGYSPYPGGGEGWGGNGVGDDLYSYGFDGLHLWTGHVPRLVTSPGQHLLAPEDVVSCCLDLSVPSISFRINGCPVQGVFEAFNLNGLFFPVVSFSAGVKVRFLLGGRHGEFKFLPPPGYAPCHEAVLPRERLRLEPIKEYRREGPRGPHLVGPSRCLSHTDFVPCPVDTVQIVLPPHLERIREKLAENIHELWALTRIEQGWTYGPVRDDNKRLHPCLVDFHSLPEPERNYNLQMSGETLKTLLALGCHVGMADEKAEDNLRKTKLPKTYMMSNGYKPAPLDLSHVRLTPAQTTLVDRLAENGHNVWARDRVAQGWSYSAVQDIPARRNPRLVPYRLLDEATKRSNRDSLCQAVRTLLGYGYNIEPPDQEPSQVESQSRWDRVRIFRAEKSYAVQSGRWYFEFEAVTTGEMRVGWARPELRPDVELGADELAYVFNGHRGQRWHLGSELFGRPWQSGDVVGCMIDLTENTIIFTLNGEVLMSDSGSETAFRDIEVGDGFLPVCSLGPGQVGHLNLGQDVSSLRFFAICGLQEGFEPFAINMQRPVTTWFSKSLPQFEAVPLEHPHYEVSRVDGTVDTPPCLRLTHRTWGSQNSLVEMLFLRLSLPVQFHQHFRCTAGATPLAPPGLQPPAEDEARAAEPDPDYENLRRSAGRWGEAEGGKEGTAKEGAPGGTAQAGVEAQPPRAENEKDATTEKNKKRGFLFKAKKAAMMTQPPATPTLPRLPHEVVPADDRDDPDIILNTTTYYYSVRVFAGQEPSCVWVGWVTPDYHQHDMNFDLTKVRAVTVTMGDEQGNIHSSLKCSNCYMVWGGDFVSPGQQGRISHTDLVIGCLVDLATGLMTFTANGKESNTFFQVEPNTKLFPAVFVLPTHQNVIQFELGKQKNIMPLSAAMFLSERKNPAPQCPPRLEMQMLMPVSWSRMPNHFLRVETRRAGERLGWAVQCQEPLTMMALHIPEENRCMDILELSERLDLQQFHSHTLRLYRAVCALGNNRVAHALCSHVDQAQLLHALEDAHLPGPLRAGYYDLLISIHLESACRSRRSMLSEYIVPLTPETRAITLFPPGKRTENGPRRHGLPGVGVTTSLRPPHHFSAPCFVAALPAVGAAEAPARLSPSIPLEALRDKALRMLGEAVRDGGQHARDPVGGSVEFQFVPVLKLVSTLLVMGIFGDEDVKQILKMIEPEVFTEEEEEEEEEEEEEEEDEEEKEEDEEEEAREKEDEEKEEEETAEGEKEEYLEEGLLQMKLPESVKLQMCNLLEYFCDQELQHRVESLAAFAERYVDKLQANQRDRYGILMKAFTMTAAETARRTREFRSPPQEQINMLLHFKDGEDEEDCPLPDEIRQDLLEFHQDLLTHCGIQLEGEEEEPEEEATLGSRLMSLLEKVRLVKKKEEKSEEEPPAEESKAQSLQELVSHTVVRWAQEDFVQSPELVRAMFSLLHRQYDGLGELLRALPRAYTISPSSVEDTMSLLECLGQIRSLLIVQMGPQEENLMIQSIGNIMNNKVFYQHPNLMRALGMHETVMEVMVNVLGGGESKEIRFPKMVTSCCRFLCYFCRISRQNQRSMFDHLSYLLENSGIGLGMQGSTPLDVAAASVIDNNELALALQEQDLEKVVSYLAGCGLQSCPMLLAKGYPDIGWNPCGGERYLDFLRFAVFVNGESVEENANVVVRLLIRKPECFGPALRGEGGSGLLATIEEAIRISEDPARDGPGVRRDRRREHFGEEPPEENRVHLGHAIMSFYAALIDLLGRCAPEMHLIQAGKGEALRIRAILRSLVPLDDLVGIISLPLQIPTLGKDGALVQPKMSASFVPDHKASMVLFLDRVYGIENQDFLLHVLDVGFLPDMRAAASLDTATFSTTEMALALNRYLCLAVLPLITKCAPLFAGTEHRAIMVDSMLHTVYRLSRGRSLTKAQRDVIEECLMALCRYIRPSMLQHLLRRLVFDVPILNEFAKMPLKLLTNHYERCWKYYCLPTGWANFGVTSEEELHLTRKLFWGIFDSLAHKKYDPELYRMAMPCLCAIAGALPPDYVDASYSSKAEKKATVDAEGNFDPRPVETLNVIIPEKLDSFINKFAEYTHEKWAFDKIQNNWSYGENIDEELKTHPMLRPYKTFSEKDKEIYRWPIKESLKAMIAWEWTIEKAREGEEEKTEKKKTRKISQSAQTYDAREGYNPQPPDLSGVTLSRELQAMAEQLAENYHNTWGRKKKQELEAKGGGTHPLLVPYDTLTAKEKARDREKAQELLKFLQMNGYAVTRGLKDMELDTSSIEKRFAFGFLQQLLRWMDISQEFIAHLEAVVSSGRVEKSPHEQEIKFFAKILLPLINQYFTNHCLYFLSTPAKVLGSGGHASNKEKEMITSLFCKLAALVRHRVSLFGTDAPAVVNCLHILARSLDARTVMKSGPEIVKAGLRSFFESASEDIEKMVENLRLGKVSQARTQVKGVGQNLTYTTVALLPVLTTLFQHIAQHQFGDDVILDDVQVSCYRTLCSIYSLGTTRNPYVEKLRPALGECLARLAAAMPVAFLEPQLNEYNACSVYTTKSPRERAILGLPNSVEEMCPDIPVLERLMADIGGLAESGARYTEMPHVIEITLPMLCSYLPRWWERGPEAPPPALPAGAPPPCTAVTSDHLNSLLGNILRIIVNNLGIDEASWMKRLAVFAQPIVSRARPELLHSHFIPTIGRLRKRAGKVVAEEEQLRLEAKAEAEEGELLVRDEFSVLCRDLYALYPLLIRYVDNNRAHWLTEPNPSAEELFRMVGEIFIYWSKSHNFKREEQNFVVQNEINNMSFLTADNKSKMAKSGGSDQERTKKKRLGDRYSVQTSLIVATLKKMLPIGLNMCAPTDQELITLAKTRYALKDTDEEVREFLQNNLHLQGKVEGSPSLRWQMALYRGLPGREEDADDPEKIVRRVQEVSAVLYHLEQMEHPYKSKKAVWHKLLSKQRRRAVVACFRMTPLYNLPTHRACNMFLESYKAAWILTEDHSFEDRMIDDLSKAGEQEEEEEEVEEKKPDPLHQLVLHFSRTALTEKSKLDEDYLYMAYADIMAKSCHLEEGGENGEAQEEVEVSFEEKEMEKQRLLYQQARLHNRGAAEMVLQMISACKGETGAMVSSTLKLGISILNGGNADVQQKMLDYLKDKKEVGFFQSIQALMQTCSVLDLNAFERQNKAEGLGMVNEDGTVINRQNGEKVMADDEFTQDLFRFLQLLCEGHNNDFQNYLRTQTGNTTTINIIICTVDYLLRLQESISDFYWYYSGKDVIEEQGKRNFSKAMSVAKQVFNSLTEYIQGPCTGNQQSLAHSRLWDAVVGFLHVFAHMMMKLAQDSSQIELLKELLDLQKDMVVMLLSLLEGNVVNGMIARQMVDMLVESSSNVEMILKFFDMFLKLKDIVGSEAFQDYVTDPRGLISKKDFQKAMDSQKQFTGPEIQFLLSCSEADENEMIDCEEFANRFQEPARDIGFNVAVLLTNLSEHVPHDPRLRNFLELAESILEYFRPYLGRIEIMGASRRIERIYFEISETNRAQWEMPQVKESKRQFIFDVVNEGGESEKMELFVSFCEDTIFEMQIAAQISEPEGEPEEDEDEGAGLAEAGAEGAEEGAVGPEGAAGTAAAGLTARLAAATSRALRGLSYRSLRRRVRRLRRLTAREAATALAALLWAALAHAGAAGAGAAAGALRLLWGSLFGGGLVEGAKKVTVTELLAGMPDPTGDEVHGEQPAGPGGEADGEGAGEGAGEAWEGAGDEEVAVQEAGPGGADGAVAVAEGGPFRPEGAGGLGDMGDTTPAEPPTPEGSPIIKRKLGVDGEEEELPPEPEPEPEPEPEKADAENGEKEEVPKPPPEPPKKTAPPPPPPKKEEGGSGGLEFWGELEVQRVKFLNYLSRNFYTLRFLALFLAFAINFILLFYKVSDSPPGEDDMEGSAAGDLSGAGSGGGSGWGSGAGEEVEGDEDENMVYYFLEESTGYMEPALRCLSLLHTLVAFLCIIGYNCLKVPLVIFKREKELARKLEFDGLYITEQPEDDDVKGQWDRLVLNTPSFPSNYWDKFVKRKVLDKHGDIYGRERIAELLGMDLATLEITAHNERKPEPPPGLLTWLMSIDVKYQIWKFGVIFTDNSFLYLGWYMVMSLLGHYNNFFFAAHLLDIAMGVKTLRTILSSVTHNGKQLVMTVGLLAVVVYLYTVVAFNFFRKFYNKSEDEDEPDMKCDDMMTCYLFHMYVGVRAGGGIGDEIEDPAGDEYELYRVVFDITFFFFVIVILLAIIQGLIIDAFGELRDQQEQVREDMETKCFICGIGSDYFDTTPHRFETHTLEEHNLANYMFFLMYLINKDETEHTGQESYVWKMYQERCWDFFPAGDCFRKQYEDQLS
Assay [2] has as its system RyR1 Ca^2+ leak in human skinned skeletal muscle fibers. Put plainly: t-system Ca2+ readout of RyR1 Ca2+ leak in human mechanically skinned skeletal muscle fibers. The following applies: for Reduction of RyR1 Ca2+ leak: at identified compound concentrations that only slightly affected Ca2+ release in EC coupling.
Assay [3] deals with T1, RyR1. Also on record: RyR1 in skeletal SR membranes; from tissue; host or cells: porcine longissimus dorsi muscle (heavy SR vesicles); method as in PMID 27760856. The following applies: skeletal HSR, previous study; cited from earlier work.
The target in assay [4] is T1, RyR1. Put plainly: [3H]ryanodine binding to skeletal SR vesicles. It counts as biochemical, porcine. Also on record: RyR1 in skeletal SR membranes, and RyR2 in cardiac SR membranes; from tissue; host or cells: porcine longissimus dorsi muscle (heavy SR vesicles). How it is done:
(§1) To evaluate the functional impact of compounds identified through our FRET-based screen, we first used [^3H]ryanodine binding assays. The level of [^3H]ryanodine binding to RyRs in SR membranes is a well-established index of the RyR channel activity. Given the role of CaM binding in our FRET readout, we investigated whether CaM influences the functional effect of the Hit compounds by carrying out [^3H]ryanodine binding assays in the absence and presence of CaM (300 nM).
Crude sarcoplasmic reticulum (CSR) vesicles were isolated from porcine longissimus dorsi muscle and porcine cardiac left ventricle tissue by differential centrifugation of homogenized tissue. HSR vesicles, which are enriched in RyR1, were isolated by fractionation of crude skeletal SR vesicles using a discontinuous sucrose gradient. All vesicles were flash-frozen and stored at −80 °C. Immediately prior to the fluorescence or [^3H]ryanodine binding studies described below, the SR vesicles were stripped of residual endogenous CaM by incubation with a peptide derived from the CaM binding domain of myosin light chain kinase, followed by sedimentation.
In 96-well plates, HSR vesicles (1 mg/ml) and cardiac CSR vesicles (3 mg/mL) were pre-incubated with 0.02% DMSO or Hit compound, with or without 300 nM CaM, for 30 min at 22 °C in a solution containing 150 mM KCl, 5 mM GSSG, 1 µg/mL Aprotinin/Leupeptin, 1 mM EGTA, and 65 µM or 1.02 mM CaCl2 (as determined by MaxChelator to yield 30 nM or 30 μM of free Ca^2+, respectively), 0.1 mg/mL BSA and 20 mM K-PIPES (pH 7.0). Non-specific and maximal [^3H]ryanodine binding to SR were separately assessed by addition of 40 µM non-radioactively labeled ryanodine or 5 mM Adenylyl-imidodiphosphate, respectively. Such control samples were each distributed over 4 wells/plate. Binding of [^3H]ryanodine (10 and 15 nM for cardiac and skeletal SR, respectively) was determined after a 3-h incubation (37 °C) and filtration through grade GF/B Glass Microfiber filters (Brandel Inc., Gaithersburg, MD, US) using a Brandel Harvester. In 4 mL of Ecolite Scintillation cocktail (MP biomedicals, Solon, OH, USA), [^3H] on filter was counted using a Beckman LS6000 scintillation counter (Fullerton, CA).

Assay [5] has as its target T2, RyR2 (Sus scrofa, UniProt A0A5G2R1W3). Put plainly: F-FKBP binding to RyR2 by co-sedimentation with cardiac SR membranes. Details: using co-sedimentation with pig skeletal and cardiac SR membranes; from tissue; host or cells: pig cardiac muscle (crude SR membranes); species or system pig. The following applies: RyR2, 10 μM Hit, 30 nM Ca2+, 5 mM GSSG or GSH. How it is done:
The Hit-induced effect on FRET between D-FKBP and A-CaM most likely results from one or the combination of factors, including a shift in CaM and/or FKBP12.6 binding, and/or structure of the RyR complex that shifts the D-A distance. Under the same assay conditions as in the primary screen, we assessed the effect of 10 μM Hit on fluorescent FKBP12.6 (F-FKBP) binding to RyRs, using co-sedimentation with pig skeletal and cardiac SR membranes.
Supplementary Fig. 3 Effect of HTS Hits on F-FKBP binding to a) RyR1 in skeletal HSR membranes, and b) RyR2
in cardiac CSR membranes at 30 nM Ca2+ in the presence of 5 mM GSSG or GSH. Results are represented as individual
data points and means ± SEM, n = 4-5. *P < 0.05 by 2-sided Student’s unpaired t-test. […]

For assay [6], the target named is T2, RyR2. Put plainly: [3H]ryanodine binding to cardiac SR vesicles. It counts as biochemical, porcine. The following applies: micromolar compound, significant only with CaM at 30 nM Ca2+ and only without CaM at 30 μM Ca2+. Also on record: RyR1 in skeletal SR membranes, and RyR2 in cardiac SR membranes; from tissue; host or cells: porcine cardiac left ventricle (crude SR vesicles). How it is done: as §1
Crude sarcoplasmic reticulum (CSR) vesicles were isolated from porcine longissimus dorsi muscle and porcine cardiac left ventricle tissue by differential centrifugation of homogenized tissue. […] Immediately prior to the fluorescence or [^3H]ryanodine binding studies described below, the SR vesicles were stripped of residual endogenous CaM by incubation with a peptide derived from the CaM binding domain of myosin light chain kinase, followed by sedimentation.
In 96-well plates, HSR vesicles (1 mg/ml) and cardiac CSR vesicles (3 mg/mL) were pre-incubated with 0.02% DMSO or Hit compound, with or without 300 nM CaM, for 30 min at 22 °C in a solution containing 150 mM KCl, 5 mM GSSG, 1 µg/mL Aprotinin/Leupeptin, 1 mM EGTA, and 65 µM or 1.02 mM CaCl2 (as determined by MaxChelator to yield 30 nM or 30 μM of free Ca^2+, respectively), 0.1 mg/mL BSA and 20 mM K-PIPES (pH 7.0). […]

Setting [7] is: 10 μM compound, 200 nM [Ca2+]cyto.

With `Oc1c(Cl)cc(Cl)c2cccnc12` [chloroxine], on RyR1 [1], the “Effect on FRET in previous 384-well screen” value is on record as “increased FRET”. For the same compound, the “Effect on steady-state [Ca2+]t-sys vs control (RyR1 leak)” value in assay [2] (100 μM compound, 200 nM [Ca2+]cyto) was “statistically decreased”. Further, the “Effect on steady-state [Ca2+]t-sys (RyR1 leak)” value in assay [2] (all three concentrations tested (1, 10 and 100 μM), towards level of 1 mM tetracaine) is given as “progressively reduced”. In assay [2], the “Reduction of RyR1 Ca2+ leak” value is given as > 50%. Besides, on RyR1 [3], the “Decrease in [3H]ryanodine binding” value was 20%.

As to `O=c1c(O)c(-c2cc(O)c(O)c(O)c2)oc2cc(O)cc(O)c12` [myricetin], the “Maximum decrease in [3H]ryanodine binding” value on RyR1 [4] (1 μM compound, 30 μM Ca2+) was ~ 20%. Also, the “Effect on [3H]ryanodine binding” value at RyR1 [4] (20 μM compound, 30 nM Ca2+, only in the absence of CaM) is “dramatically increased”; on RyR1 [4] (30 μM Ca2+, presence and absence of 0.3 μM CaM, 0-20 μM compound), “biphasic effect”; at RyR2 [6], “only inhibits”. In addition, the “Decrease in [3H]ryanodine binding” value on RyR1 [4] (≤ 10 μM compound, 30 nM Ca2+, with or without CaM) is > 50%. Also, the “Decrease of F-FKBP binding” value at RyR2 [5] was “did not alter”. Besides, the “Effect on steady-state [Ca2+]t-sys vs control (RyR1 leak)” value is “decreased” in assay [2] (1 μM compound, 200 nM [Ca2+]cyto) and “decreased” in assay [2] (setting [7]). In assay [2] (setting [7]), the “Effect on [Ca2+]t-sys relative to RyR blocker tetracaine” value is listed as “went beyond the effects of 1 mM tetracaine”. Also, in assay [2], the “Reduction of RyR1 Ca2+ leak” value is > 50%.
